Measurements reported in patent US9422277B2, “Tricyclic substituted thiadiazine dioxide compounds as BACE inhibitors, compositions and their use” (Merck Sharp & Dohme Corp., priority 2012, dated 2016).

Assays:
[1] = target: purified human autoBACE-2 (Homo sapiens (Human), UniProt Q9Y5Z0); assay: BACE-2 Assay (BACE-HTRF assay); type: biochemical; conditions: Ki calculated from IC50 using the Cheng-Prusoff equation; read-out: BACE2 Ki
Method: Inhibitor IC50s at purified human autoBACE-2 are determined in a time-resolved endpoint proteolysis assay that measures hydrolysis of the QSY7-[…]-Eu-amide FRET peptide substrate (BACE-HTRF assay). BACE-mediated hydrolysis of this peptide results in an increase in relative fluorescence (RFU) at 620 nm after excitation with 320 nm light Inhibitor compounds, prepared at 3× the desired final concentration in 1×BACE assay buffer (20 mM sodium acetate pH 5.0, 10% glycerol, 0.1% Brij-35) supplemented with 7.5% DMSO are pre-incubated with an equal volume of autoBACE-2 enzyme diluted in 1×BACE assay buffer (final enzyme concentration 1 nM) in black 384-well NUNC plates for 30 minutes at 30° C. […] DMSO is present at 5% final concentration in the assay. Following laser excitation of sample wells at 320 nm, the fluorescence signal at 620 nm is collected for 400 ms following a 50 μs delay on a RUBYstar HTRF plate reader (BMG Labtechnologies). Raw RFU data is normalized to maximum (1.0 nM BACE/DMSO) and minimum (no enzyme/DMSO) RFU values. IC50s are determined by nonlinear regression analysis (sigmoidal dose response, variable slope) of percent inhibition data with minimum and maximum values set to 0 and 100 percent respectively. Similar IC50s are obtained when using raw RFU data. The Ki values are calculated from the IC50 using the Cheng-Prusoff equation.

[2] = target: soluble human BACE1 catalytic domain (Homo sapiens (Human), UniProt P56817); assay: BACE1 HTRF FRET Assay; type: biochemical; conditions: Ki calculated from IC50 using the Cheng-Prusoff equation
Excerpt: A homogeneous time-resolved FRET assay can be used to determine IC50 values for inhibitors of the soluble human BACE1 catalytic domain. This assay monitors the increase of 620 nm fluorescence that resulted from BACE1 cleavage of an APPswedish APP^swe mutant peptide FRET substrate (QSY7-[…]-Europium-amide). This substrate contains an N-terminal QSY7 moiety that serves as a quencher of the C-terminal Europium fluorophore (620 nm Em). In the absence of enzyme activity, 620 nm fluorescence is low in the assay and increased linearly over 3 hours in the presence of uninhibited BACE1 enzyme Inhibition of BACE1 cleavage of the QSY7-APP^swe-Eu substrate by inhibitors is manifested as a suppression of 620 nm fluorescence.
Reactions are initiated by addition of 10 μl of 600 nM QSY7-APP^swe-Eu substrate (200 nM final) to give a final reaction volume of 30 μl in a 384 well Nunc HTRF plate. The reactions are incubated at 30° C. for 1.5 hours. The 620 nm fluorescence is then read on a Rubystar HTRF plate reader (BMG Labtechnologies) using a 50 millisecond delay followed by a 400 millisecond acquisition time window Inhibitor IC50 values are derived from non-linear regression analysis of concentration response curves.

[3] = target: human P-glycoprotein (Homo sapiens (Human), UniProt P08183); assay: Efflux by human P-glycoprotein (Pgp Mdr1 efflux ratio); type: in vitro ADME
human P-glycoprotein, sequence (P08183 whole entry): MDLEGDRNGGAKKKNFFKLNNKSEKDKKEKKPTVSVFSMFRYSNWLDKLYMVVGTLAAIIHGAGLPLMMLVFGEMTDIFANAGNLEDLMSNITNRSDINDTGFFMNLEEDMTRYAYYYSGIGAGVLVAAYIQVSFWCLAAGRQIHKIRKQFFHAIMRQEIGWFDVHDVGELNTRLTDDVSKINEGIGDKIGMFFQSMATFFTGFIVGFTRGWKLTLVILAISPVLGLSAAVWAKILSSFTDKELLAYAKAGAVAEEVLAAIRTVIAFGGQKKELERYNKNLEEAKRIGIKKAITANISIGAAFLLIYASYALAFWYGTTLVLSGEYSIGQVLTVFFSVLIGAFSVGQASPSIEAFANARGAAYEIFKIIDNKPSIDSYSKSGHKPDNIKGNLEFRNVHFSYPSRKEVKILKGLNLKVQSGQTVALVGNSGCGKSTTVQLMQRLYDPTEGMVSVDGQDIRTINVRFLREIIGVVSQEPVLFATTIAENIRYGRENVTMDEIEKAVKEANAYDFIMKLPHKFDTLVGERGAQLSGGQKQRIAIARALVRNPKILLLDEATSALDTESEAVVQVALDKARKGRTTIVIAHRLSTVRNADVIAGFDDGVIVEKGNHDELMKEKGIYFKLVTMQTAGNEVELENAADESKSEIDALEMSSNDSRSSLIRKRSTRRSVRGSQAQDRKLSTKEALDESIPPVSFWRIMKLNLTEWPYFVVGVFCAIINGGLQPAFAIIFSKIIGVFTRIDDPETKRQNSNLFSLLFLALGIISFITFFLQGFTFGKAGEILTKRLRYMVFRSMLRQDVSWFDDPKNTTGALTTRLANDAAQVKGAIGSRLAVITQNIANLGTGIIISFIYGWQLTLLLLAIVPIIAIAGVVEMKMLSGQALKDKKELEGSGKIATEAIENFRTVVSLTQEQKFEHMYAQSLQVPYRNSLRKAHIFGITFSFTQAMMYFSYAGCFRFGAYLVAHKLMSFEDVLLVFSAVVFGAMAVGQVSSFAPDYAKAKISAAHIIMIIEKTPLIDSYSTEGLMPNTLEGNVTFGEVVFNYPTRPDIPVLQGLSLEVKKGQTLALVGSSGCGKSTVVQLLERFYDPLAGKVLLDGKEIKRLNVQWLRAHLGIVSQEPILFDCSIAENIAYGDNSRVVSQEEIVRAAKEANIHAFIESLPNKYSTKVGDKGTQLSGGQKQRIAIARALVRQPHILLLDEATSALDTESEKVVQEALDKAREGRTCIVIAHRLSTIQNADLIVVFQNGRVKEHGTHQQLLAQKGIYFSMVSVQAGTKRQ

purified human autoBACE-2, sequence (Q9Y5Z0 63-473 limits assumed): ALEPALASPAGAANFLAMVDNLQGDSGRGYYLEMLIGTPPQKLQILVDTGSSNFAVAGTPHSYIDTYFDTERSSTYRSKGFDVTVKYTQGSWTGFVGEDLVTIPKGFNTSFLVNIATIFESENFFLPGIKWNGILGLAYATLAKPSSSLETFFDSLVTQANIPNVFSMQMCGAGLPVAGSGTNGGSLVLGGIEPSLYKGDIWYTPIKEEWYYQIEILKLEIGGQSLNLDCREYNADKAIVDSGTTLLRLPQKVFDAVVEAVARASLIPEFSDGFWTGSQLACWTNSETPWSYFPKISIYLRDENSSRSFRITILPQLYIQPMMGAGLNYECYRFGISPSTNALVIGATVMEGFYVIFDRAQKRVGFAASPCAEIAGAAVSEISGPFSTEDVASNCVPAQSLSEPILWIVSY
soluble human BACE1 catalytic domain, sequence (P56817 75-416): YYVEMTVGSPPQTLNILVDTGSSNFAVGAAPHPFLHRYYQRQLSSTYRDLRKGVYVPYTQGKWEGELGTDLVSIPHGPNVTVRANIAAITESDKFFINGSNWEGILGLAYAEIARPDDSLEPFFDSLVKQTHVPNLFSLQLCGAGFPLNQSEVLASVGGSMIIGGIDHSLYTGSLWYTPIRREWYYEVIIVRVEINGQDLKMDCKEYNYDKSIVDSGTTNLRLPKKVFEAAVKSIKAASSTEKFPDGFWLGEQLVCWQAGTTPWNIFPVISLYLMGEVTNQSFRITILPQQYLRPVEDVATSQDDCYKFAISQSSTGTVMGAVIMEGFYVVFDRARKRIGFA

SMILES	Ki [1] [nM]	Ki [2] [nM]	Pgp Mdr1 ER [3]
CN1C(=N)N[C@](C)(c2sc(-c3nnc(-c4ccc(Cl)cc4)o3)cc2F)CS1(=O)=O [Example 19]	13.6	31.9	1.0
CN1C(=N)N[C@](C)(c2sc(-c3nnc(-c4ccc(Cl)cc4)o3)cc2Cl)CS1(=O)=O [Example 16]	13.8	28.8	1.1
COc1ccc(-c2nnc(-c3cc(Cl)c([C@]4(C)CS(=O)(=O)N(C)C(=N)N4)s3)o2)cc1 [Example 17]	34.6	38.6	1.0
CN1C(=N)N[C@](C)(c2sc(-c3nnc(-c4ccc(C(F)(F)F)cc4)o3)cc2Cl)CS1(=O)=O [Example 18]	155	58.9	0.7
CN1C(=N)N[C@](C)(c2sc(-c3nnc(-c4ccc(F)cc4)o3)cc2Cl)CS1(=O)=O [Example 22]	13	65.5	1.4
CN1C(=N)N[C@](C)(c2sc(-c3nnc(-c4cncnc4)o3)cc2Cl)CS1(=O)=O [Example 39]	1660	5400	
CN1C(=N)N[C@](C)(c2sc(-c3nnc(-c4ccc5[nH]cnc5c4)o3)cc2Cl)CS1(=O)=O [Example 58]	1300	964	
CN1C(=N)N[C@](C)(c2sc(-c3nnc(-c4ccc(-n5cnnn5)cc4)o3)cc2Cl)CS1(=O)=O [Example 70]	1350	180	
CN1C(=N)N[C@](C)(c2sc(-c3nnc(-c4cnn5ccccc45)o3)cc2Cl)CS1(=O)=O [Example 35]	450	2370	
CN1C(=N)N[C@](C)(c2sc(-c3nnc(-c4cnccn4)o3)cc2Cl)CS1(=O)=O [Example 27]	284	683	
CN1C(=N)N[C@](C)(c2sc(-c3nnc(-c4ccn(C)n4)o3)cc2Cl)CS1(=O)=O [Example 46]	130	1140	
CN1C(=N)N[C@](C)(c2cc(-c3cc(-c4ccccc4)on3)ccc2F)CS1(=O)=O [Example 13]	207	910	
CN1C(=N)N[C@](C)(c2sc(-c3nnc(-c4ccc(C5(C#N)COC5)cc4)o3)cc2Cl)CS1(=O)=O [Example 66]	1070	1360	
CN1C(=N)N[C@](C)(c2sc(-c3nnc(-c4ccc(OC(F)F)cc4)o3)cc2Cl)CS1(=O)=O [Example 79]	132	51.6	
CN1C(=N)N[C@](C)(c2sc(-c3nnc(-c4cscn4)o3)cc2Cl)CS1(=O)=O [Example 37]	69.1	662	
CN1C(=N)N[C@](C)(c2sc(-c3nnc(-c4nccs4)o3)cc2Cl)CS1(=O)=O [Example 32]	44.3	402	
CCCCCOc1ccc(-c2nnc(-c3cc(Cl)c([C@]4(C)CS(=O)(=O)N(C)C(=N)N4)s3)o2)cc1 [Example 64]	356	160	
CN1C(=N)N[C@](C)(c2sc(-c3nnc(-c4ccnn4C)o3)cc2Cl)CS1(=O)=O [Example 47]	712	1520	
CN1C(=N)N[C@](C)(c2sc(-c3nnc(-c4ccc(C(F)(F)F)c(F)c4)o3)cc2Cl)CS1(=O)=O [Example 65]	366	156	

SMILES	Ki [1] [nM]	Ki [2] [nM]	Pgp Mdr1 ER [3]
CN1C(=N)N[C@](C)(c2cc(-c3nnc(-c4ccccc4)o3)ccc2F)CS1(=O)=O [Example 24]	1490	9870	
CN1C(=N)N[C@](C)(c2sc(-c3nnc(-c4cccc(C#N)c4)o3)cc2Cl)CS1(=O)=O [Example 31]	1240	1210	
CN1C(=N)N[C@](C)(c2cc(-c3ccc(-c4nnco4)[nH]3)ccc2F)CS1(=O)=O [Example 11]	172	45	
CN1C(=N)N[C@](C)(c2sc(-c3nnc(-c4cccc5ccnn45)o3)cc2Cl)CS1(=O)=O [Example 34]	217	561	
CN1C(=N)N[C@](C)(c2sc(-c3nnc(-c4cc5ccccn5n4)o3)cc2Cl)CS1(=O)=O [Example 30]	96.8	260	
CN1C(=N)N[C@](C)(c2sc(-c3nnc(-c4ccc(Cl)cc4F)o3)cc2Cl)CS1(=O)=O [Example 57]	16.8	50.7	
CN1C(=N)N[C@](C)(c2sc(-c3cnn(-c4ccccc4)c3)cc2Cl)CS1(=O)=O [Example 85]	27.9	265	
CN1C(=N)N[C@](C)(c2sc(-c3nnc(-c4ccccc4)o3)cc2Cl)CS1(=O)=O [Example 20]	7.76	106	1.3
CN1C(=N)N[C@](C)(c2sc(-c3nnc(-c4cncs4)o3)cc2Cl)CS1(=O)=O [Example 33]	347	863	
CN1C(=N)N[C@](C)(c2cc(-c3nnc(-c4ccon4)o3)ccc2F)CS1(=O)=O [Example 55]	737	4940	
CN1C(=N)N[C@](C)(c2sc(-c3nnc(-c4cocn4)o3)cc2Cl)CS1(=O)=O [Example 42]	142	925	
CN1C(=N)N[C@](C)(c2sc(-c3nnc(-c4ccc(F)c(F)c4)o3)cc2Cl)CS1(=O)=O [Example 59]	81.3	118	
CN1C(=N)N[C@](C)(c2sc(-c3nnc(-c4cnn(C)c4)o3)cc2Cl)CS1(=O)=O [Example 45]	226	407	
Cc1nc2cc(-c3nnc(-c4cc(Cl)c([C@]5(C)CS(=O)(=O)N(C)C(=N)N5)s4)o3)ccc2s1 [Example 72]	1150	422	
CN1C(=N)N[C@](C)(c2sc(-c3nnc(-c4ccc(-c5ccon5)cc4)o3)cc2Cl)CS1(=O)=O [Example 76]	243	108	
CN1C(=N)N[C@](C)(c2sc(-c3nnc(-c4ccc(OC(F)(F)F)cc4)o3)cc2Cl)CS1(=O)=O [Example 78]	143	56	
CN1C(=N)N[C@](C)(c2sc(-c3nnc(-c4cccnc4)o3)cc2Cl)CS1(=O)=O [Example 29]	698	1050	
CCCCOc1ccc(-c2nnc(-c3cc(Cl)c([C@]4(C)CS(=O)(=O)N(C)C(=N)N4)s3)o2)cc1 [Example 61]	258	100	
CN1C(=N)N[C@](C)(c2sc(-c3nnc(-c4ccc5scnc5c4)o3)cc2Cl)CS1(=O)=O [Example 73]	336	171	
